Among the targets are D(1A) dopamine receptor (Homo sapiens, UniProt P21728); Histamine H3 receptor (Homo sapiens, UniProt Q9Y5N1); Mu-type opioid receptor (Homo sapiens, UniProt P35372).
The target in the next assay is Acetylcholinesterase (Homo sapiens, UniProt P22303). The class given is functional.
The target of a further assay is T1, Adenosine receptor A3 (Homo sapiens, UniProt P0DMS8).
T1 sequence (P0DMS8 whole entry): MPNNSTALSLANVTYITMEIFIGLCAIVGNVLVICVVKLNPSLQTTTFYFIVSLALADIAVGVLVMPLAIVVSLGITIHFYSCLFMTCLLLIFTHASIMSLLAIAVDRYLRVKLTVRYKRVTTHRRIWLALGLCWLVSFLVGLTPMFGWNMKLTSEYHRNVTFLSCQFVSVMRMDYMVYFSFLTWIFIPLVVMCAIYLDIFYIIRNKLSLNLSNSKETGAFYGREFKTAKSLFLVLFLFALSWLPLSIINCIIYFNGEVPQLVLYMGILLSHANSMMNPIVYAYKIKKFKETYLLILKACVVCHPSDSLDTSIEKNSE

Assay [1] concerns the target T2, Alpha-1A adrenergic receptor (Homo sapiens, UniProt P35348).
T2 sequence (P35348 whole entry): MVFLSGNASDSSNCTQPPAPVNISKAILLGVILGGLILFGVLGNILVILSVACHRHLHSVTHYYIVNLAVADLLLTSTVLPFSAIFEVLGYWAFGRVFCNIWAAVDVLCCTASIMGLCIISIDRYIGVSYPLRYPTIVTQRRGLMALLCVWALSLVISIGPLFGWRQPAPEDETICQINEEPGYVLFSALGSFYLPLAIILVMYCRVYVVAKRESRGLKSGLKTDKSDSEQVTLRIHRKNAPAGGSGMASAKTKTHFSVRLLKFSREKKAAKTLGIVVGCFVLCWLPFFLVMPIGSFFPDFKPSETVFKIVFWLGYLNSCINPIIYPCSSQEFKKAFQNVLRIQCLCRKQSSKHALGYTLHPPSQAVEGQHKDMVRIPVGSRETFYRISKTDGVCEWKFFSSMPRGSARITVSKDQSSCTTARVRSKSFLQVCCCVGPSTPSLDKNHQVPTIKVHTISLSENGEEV
It counts as functional, cell-based.

Assay [2] has as its target 5-hydroxytryptamine receptor 2B (Homo sapiens, UniProt P41595). The class given is functional, cell-based.
In assay [3] the target is Vascular endothelial growth factor receptor 2 (Homo sapiens, UniProt P35968). The class given is functional.
Chain of Vascular endothelial growth factor receptor 2 (P35968 whole entry): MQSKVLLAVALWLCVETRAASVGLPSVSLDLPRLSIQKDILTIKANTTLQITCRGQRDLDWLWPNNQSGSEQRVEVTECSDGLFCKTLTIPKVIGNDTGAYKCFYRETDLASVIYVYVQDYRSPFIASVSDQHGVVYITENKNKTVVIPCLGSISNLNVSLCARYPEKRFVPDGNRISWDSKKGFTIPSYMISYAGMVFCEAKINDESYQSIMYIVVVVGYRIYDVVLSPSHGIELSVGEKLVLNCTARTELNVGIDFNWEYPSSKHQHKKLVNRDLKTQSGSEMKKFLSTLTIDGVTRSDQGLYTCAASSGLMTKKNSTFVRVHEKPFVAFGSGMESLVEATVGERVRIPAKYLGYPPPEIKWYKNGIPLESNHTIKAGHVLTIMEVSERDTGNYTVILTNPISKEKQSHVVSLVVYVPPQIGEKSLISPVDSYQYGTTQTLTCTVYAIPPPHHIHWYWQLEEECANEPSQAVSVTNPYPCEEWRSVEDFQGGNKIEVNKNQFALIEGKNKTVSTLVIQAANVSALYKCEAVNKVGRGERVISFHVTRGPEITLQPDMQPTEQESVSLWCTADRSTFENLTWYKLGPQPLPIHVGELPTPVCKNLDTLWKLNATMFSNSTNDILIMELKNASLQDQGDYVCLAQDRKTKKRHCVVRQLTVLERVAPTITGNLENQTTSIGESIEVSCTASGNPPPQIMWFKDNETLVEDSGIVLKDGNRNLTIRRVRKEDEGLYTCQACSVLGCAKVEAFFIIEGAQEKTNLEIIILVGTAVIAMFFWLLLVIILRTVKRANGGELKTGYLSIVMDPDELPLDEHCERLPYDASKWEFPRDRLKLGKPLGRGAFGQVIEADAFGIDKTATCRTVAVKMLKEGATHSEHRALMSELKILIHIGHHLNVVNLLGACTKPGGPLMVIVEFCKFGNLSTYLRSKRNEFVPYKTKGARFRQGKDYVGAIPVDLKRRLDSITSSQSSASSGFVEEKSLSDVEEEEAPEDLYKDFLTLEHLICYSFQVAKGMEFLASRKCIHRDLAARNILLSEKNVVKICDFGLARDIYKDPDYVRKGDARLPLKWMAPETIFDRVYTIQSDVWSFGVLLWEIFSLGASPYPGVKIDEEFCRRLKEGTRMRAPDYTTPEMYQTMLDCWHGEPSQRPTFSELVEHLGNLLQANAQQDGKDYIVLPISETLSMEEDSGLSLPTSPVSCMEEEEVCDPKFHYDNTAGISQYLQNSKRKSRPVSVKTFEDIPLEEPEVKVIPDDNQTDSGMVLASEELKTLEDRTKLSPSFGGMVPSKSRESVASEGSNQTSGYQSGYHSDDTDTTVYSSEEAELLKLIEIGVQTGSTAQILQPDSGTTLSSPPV
The target of assay [4] is T3, Amine oxidase [flavin-containing] A (Homo sapiens, UniProt P21397).
T3 sequence (P21397 whole entry): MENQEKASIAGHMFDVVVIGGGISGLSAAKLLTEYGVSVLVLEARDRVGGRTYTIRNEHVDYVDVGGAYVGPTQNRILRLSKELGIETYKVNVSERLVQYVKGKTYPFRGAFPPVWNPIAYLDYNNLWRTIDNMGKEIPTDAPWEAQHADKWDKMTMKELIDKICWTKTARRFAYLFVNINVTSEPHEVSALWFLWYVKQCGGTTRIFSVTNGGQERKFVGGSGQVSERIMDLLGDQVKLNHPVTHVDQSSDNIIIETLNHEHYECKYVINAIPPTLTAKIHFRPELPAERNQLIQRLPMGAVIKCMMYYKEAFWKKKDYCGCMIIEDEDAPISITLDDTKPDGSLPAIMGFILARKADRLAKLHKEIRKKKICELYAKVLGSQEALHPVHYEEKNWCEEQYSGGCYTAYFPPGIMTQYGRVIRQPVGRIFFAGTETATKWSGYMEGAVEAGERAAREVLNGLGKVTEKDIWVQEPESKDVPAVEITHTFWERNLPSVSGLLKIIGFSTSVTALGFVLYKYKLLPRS
The class given is functional.

Assay [5] addresses cGMP-inhibited 3',5'-cyclic phosphodiesterase 3A (Homo sapiens, UniProt Q14432). It counts as functional.
The next assay concerns the target T4, Progesterone receptor (Homo sapiens, UniProt P06401).
T4 sequence (P06401 whole entry): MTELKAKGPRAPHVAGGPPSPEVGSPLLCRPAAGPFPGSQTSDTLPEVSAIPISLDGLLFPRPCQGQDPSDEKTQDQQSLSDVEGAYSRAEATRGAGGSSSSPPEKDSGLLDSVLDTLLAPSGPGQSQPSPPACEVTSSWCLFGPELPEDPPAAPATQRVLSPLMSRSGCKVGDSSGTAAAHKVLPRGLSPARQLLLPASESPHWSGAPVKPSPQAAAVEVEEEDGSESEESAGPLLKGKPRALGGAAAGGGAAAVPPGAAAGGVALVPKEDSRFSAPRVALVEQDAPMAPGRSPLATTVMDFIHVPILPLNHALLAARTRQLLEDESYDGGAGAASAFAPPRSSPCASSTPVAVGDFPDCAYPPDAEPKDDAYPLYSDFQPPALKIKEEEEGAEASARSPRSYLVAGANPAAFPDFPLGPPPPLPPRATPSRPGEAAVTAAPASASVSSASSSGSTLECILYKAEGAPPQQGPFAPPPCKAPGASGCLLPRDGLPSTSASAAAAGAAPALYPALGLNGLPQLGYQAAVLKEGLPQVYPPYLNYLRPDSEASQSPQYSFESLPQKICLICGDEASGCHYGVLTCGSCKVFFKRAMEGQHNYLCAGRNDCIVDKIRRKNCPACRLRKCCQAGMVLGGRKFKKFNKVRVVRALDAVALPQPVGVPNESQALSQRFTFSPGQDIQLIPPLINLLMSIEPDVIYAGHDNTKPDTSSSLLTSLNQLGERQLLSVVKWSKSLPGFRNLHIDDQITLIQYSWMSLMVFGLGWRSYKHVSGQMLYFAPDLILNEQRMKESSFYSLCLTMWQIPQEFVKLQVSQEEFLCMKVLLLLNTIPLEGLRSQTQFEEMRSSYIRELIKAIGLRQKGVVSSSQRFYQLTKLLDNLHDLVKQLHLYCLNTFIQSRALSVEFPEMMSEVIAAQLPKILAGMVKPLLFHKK

Assay [6] addresses T5, Prostaglandin G/H synthase 1 (Homo sapiens, UniProt P23219). The class given is functional.
Assay [7] concerns the target T5, Prostaglandin G/H synthase 1. It counts as functional. The source holds these as a separate data set.
In assay [8] the target is Sodium-dependent noradrenaline transporter (Homo sapiens, UniProt P23975).
Chain of Sodium-dependent noradrenaline transporter (P23975 whole entry): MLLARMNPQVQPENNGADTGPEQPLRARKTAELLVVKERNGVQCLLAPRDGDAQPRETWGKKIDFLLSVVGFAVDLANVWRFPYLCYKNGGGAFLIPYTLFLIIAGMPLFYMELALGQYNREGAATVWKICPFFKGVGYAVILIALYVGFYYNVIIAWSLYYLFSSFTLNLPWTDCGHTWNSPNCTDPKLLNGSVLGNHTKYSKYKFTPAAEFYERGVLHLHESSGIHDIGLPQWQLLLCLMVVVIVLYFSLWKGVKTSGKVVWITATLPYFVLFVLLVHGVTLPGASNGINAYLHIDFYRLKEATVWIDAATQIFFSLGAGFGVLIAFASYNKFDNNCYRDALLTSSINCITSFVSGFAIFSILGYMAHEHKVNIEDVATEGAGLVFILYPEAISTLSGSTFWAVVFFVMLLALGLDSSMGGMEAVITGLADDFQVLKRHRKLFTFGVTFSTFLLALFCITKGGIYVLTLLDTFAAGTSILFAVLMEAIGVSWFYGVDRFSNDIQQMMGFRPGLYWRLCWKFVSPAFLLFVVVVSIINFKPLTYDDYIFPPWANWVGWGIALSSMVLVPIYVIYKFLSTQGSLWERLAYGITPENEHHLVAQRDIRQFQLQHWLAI
The target of assay [9] is Sodium-dependent serotonin transporter (Homo sapiens, UniProt P31645).
Chain of Sodium-dependent serotonin transporter (P31645 whole entry): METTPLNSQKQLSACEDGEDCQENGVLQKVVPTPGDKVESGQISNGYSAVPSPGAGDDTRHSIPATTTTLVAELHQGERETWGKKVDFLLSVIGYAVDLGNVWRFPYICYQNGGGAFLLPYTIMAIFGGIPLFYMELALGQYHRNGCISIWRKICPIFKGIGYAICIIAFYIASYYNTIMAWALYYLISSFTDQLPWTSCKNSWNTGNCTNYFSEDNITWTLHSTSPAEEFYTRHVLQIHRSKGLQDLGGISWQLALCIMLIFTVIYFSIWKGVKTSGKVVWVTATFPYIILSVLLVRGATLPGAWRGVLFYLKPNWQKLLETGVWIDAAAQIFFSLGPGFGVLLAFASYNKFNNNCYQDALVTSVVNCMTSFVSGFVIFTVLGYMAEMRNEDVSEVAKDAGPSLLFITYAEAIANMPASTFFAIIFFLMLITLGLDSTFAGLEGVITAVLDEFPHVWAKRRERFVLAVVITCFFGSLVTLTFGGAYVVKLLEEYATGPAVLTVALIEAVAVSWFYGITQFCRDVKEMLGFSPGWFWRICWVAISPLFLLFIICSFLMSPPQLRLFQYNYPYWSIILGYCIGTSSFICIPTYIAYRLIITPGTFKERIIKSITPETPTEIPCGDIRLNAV
Also: assay procedure not described here.

Chain of cGMP-inhibited 3',5'-cyclic phosphodiesterase 3A (Q14432 whole entry): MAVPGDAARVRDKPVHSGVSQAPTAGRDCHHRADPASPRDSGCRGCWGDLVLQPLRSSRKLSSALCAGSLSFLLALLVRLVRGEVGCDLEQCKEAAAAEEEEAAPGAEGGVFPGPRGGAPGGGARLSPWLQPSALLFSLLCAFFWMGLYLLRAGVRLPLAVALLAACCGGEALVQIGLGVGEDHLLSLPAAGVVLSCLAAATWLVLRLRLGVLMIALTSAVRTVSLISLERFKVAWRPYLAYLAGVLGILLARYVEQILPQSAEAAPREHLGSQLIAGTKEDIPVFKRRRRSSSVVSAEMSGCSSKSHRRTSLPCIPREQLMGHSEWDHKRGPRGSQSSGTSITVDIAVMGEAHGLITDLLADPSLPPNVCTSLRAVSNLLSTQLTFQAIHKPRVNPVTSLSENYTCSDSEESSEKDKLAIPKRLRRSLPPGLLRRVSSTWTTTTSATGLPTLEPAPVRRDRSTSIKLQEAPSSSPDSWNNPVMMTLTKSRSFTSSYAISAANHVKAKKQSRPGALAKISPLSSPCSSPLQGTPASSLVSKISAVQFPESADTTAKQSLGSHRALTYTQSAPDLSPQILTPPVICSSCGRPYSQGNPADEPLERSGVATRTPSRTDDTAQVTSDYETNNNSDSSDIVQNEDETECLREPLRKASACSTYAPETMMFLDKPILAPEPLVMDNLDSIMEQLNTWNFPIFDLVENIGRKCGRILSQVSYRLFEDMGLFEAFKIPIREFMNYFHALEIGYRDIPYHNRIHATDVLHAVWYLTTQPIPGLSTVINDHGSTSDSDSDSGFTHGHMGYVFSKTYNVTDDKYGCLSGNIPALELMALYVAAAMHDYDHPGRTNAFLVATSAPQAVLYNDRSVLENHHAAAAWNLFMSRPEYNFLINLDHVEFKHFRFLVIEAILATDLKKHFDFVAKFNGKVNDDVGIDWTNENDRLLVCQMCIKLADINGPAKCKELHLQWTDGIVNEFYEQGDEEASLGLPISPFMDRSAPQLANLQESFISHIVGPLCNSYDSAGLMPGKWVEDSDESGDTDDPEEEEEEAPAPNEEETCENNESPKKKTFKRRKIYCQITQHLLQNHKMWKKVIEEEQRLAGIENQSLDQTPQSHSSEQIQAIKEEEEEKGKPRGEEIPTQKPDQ
Chain of Histamine H3 receptor (Q9Y5N1 whole entry): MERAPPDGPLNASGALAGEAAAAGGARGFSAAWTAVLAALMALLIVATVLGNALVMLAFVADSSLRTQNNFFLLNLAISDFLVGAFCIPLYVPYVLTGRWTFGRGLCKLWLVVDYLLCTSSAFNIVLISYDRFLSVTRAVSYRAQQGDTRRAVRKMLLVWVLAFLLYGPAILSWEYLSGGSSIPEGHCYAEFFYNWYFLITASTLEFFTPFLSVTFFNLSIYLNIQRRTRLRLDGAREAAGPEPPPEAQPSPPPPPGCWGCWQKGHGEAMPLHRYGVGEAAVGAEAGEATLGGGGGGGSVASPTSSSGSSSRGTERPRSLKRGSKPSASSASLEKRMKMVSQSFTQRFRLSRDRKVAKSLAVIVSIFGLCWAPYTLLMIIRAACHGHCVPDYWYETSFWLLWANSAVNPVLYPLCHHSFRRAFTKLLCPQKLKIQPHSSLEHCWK
Chain of Acetylcholinesterase (P22303 whole entry): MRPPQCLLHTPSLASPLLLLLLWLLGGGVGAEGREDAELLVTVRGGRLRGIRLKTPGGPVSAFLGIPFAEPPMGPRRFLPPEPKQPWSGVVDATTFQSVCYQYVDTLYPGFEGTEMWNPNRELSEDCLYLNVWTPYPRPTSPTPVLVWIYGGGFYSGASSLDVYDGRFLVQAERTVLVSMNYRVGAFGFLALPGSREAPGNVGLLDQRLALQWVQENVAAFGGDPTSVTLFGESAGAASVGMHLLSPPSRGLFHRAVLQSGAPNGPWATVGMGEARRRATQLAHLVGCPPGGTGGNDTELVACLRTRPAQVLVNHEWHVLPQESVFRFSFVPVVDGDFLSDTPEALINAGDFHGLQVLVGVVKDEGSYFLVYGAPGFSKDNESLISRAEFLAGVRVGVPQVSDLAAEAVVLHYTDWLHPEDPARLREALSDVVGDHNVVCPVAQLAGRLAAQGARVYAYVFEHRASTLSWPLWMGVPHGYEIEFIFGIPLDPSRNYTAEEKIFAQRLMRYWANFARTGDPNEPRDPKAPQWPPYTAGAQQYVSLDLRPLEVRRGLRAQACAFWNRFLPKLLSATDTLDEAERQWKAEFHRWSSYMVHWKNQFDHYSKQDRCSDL

As to `NC1=NCC2c3ccccc3Cc3ccccc3N12` (stereo not given) [EPINASTINE], the AC50 was more than 30 µM on Acetylcholinesterase; more than 30 µM on Adenosine receptor A3; more than 30 µM in assay [1]; 0.125 µM on D(1A) dopamine receptor; more than 30 µM on Histamine H3 receptor; more than 30 µM in assay [2]. Further, the AC50 was more than 30 µM in assay [3]; more than 30 µM in assay [4]; 17.4 µM on Mu-type opioid receptor; more than 30 µM in assay [5]; more than 30 µM on Progesterone receptor; more than 30 µM in assay [6]. Moreover, the AC50 is more than 30 µM in [7], 4.58 µM in [8] and 10.3 µM in assay [9].

Regarding `CC(=O)Oc1ccc2c(c1)CC[C@@H]1[C@@H]2CC[C@]2(C)[C@@H](O)CC[C@@H]12` [ESTRADIOL ACETATE], the AC50 was more than 30 µM on Acetylcholinesterase; 10.5 µM on Adenosine receptor A3; more than 30 µM in [1]; more than 30 µM on D(1A) dopamine receptor; more than 30 µM at Histamine H3 receptor; more than 30 µM in [2]. For the same compound, the AC50 in [3] was more than 30 µM; in assay [4] it was more than 30 µM; at Mu-type opioid receptor, 9.04 µM; in assay [5], more than 30 µM; at Progesterone receptor it was 0.209 µM; in assay [6], more than 30 µM. In addition, the figures for the AC50 in assay [7], in [8] and in assay [9] were more than 3 µM, more than 30 µM and more than 30 µM, respectively.

As for `CCOc1ccccc1C(N)=O` [ETHENZAMIDE], the AC50 (at Acetylcholinesterase; at Adenosine receptor A3; in assay [1]; at D(1A) dopamine receptor; at Histamine H3 receptor; in [2]) was more than 30 µM throughout. In addition, the AC50 (in [3]; in assay [4]; at Mu-type opioid receptor; in assay [5]; at Progesterone receptor; in assay [6]) was more than 30 µM each time. Further, the AC50 in assay [7], in [8] and in assay [9] was more than 30 µM in each case.

With `CCOC(=O)/C=C1\SC(N2CCCCC2)C(=O)N1C` (stereo not given) [ETOZOLIN], the AC50 (at Acetylcholinesterase; on Adenosine receptor A3; in [1]; on D(1A) dopamine receptor; at Histamine H3 receptor; in assay [2]) was more than 30 µM in each case. Besides, the concentration at half-maximal activity (AC50) (in assay [3]; in assay [4]; on Mu-type opioid receptor; in [5]; on Progesterone receptor; in assay [6]) was more than 30 µM throughout. For the same compound, the AC50 in [7], in [8] and in assay [9] was more than 30 µM each time.

Turning to `CCCCOC(=O)C(=O)[C@H]1[C@H](C)C[C@H]2[C@@H]3C[C@H](F)C4=CC(=O)C=C[C@]4(C)[C@H]3[C@@H](O)C[C@@]21C` [FLUOCORTIN BUTYL], the half-maximal activity concentration (AC50) on Acetylcholinesterase is more than 30 µM; at Adenosine receptor A3, 7.82 µM; in assay [1], more than 30 µM; on D(1A) dopamine receptor, more than 30 µM; at Histamine H3 receptor it was more than 30 µM; in assay [2], more than 30 µM. The AC50 was more than 30 µM in [3]; more than 30 µM in [4]; more than 30 µM at Mu-type opioid receptor; more than 30 µM in assay [5]; 0.711 µM at Progesterone receptor; more than 30 µM in [6]. The AC50 in assay [7] was more than 30 µM; in [8], 29.5 µM; in assay [9], more than 30 µM.

On to `N[C@H]1C(O)O[C@H](CO)[C@@H](O)[C@@H]1O` (stereo not given in full) [GLUCOSAMINE], for which the AC50 (on Acetylcholinesterase; on Adenosine receptor A3; in [1]; at D(1A) dopamine receptor; at Histamine H3 receptor; in assay [2]) was more than 30 µM throughout. Besides, the half-maximal activity concentration (AC50) (in assay [3]; in assay [4]; at Mu-type opioid receptor; in [5]; on Progesterone receptor; in [6]) was more than 30 µM each time. Further, the AC50 in [7], in assay [8] and in assay [9] was more than 30 µM throughout.

On to `CCN(CC)CCNc1ccc(CO)c2sc3ccccc3c(=O)c12` [HYCANTHONE], for which the AC50 at Acetylcholinesterase is more than 30 µM; on Adenosine receptor A3 it was more than 30 µM; in assay [1] it was more than 30 µM; at D(1A) dopamine receptor, more than 30 µM; at Histamine H3 receptor it was 2.14 µM; in [2] it was more than 30 µM. For the same compound, the AC50 in assay [3] is more than 30 µM; in assay [4], more than 30 µM; on Mu-type opioid receptor, 23 µM; in assay [5], more than 30 µM; at Progesterone receptor it was more than 30 µM; in [6], more than 30 µM. Besides, the results for the AC50 in [7], in assay [8] and in assay [9] were more than 30 µM, 11.9 µM and 16 µM, respectively.

`CC[C@H]1CN2CC[C@H]1C[C@H]2[C@H](O)c1ccnc2ccc(OC)cc12` [HYDROQUININE]: the AC50 (on Acetylcholinesterase; at Adenosine receptor A3; in assay [1]; at D(1A) dopamine receptor; at Histamine H3 receptor; in [2]) was more than 30 µM each time. Moreover, the AC50 in [3] was more than 30 µM; in [4] it was more than 30 µM; at Mu-type opioid receptor it was 8.13 µM; in assay [5], more than 30 µM; at Progesterone receptor, more than 30 µM; in [6] it was more than 30 µM. In addition, the concentration at half-maximal activity (AC50) was more than 30 µM in assay [7], more than 30 µM in [8] and 3.95 µM in assay [9].

Source of the values: ChEMBL document CHEMBL5291721, “A preclinical secondary pharmacology resource illuminates target-adverse drug reaction associations of marketed drugs” (Nat Commun, 2023).
